Patent publication US10004718B2, “Erythropoietin expression promoter” (TOHOKU UNIVERSITY, priority 2012, dated 2018)

Key:
[1] = Erythrocyte production in mice (Hct value and hemoglobin, i-STAT); format: in vivo, mouse; settings: 1 mg/200 μl of CMC oral, 7 consecutive days, n=3, mean±standard deviation
Experimental: Compound #4 (1 mg) was mixed with 200 μl of CMC (carboxymethylcellulose). This compound #4 mixed solution (1 mg/200 μl of CMC) was orally administered to each mouse (C57BL/6N 8 W, male, 21-25 g) between 15:00 to 18:00 every day using a sonde. This administration was carried out for 7 consecutive days (n=3). Mice orally given CMC were used as controls (n=3).
24 hours after the final administration, each mouse was cervically dislocated, and 500 μl of blood was collected from the heart. Then, an anticoagulant (10 μl of heparin) was added thereto, and the Hct value and the hemoglobin concentration were measured using i-STAT (manufactured by Fuso Pharmaceutical Industries, Ltd.).

Hep3B cells = assay: Cytotoxicity, cell survival rate of Hep3B cells (Cell Counting Kit-8); format: cell-based, human
Experimental: The Hep3B cells were seeded at 1×10^4 cells/well to a 24-well cell culture plate and then cultured under normal oxygen (20% O2) for 24 hours. […] After further culture under normal oxygen (20% O2) for 24 hours, the number of live cells was measured using Cell Counting Kit-8 (manufactured by Dojindo Laboratories) to calculate the survival rate of the cells. Hep3B cells cultured in the absence of the compound (DMSO added [1%]) (“DMSO” of FIG. 9) and Hep3B cells cultured in the presence of HIF activators (DMOG [10 μM] and ciclopirox[10 μM]) (“DMOG” and “Ciclopirox”, respectively, of FIG. 9) were used as controls.

[2] = Liver function in mice (plasma GOT, GPT, erythropoietin); format: in vivo, mouse; settings: oral, 7 consecutive days
Experimental: Compound #4 (10 mg/100 μl of DMSO) (10 μl) and compound #4 (20 mg/100 μl of DMSO) (15 μl) were mixed with 190 μl and 185 μl, respectively, of corn oil to prepare low-concentration (5 μg/ml) compound #4 and high-concentration (15 μg/ml) compound #4 mixed solutions (200 μl each). Each mixed solution (200 μl) was orally administered to each mouse (C57BL/6N 8 W, male, 21-25 g) between 15:00 to 18:00 every day using a sonde. This administration was carried out for 7 consecutive days (n=4). Mice orally given DMSO were used as controls (n=4).
24 hours after the final administration, each mouse was cervically dislocated, and 500 μl of blood was collected from the heart. Then, an anticoagulant (10 μl of heparin) was added thereto, and the resulting blood was centrifuged (12000 rpm×20 min, 4° C.) to isolate plasma. The plasma concentrations of indexes for liver functions (GOT [glutamic oxaloacetic transaminase] and GPT [glutamic pyruvic transaminase]) were measured using Transaminase CII-Test Wako (manufactured by Wako Pure Chemical Industries, Ltd.) to examine the effect of improving liver functions. Also, the plasma concentration ([…]) of erythropoietin was measured using a kit (Quantikine Mouse/Rat Epo Immunoassay, manufactured by R&D Systems, Inc.).

[3] = tested on: MCA (middle cerebral artery) occlusion mouse models; assay: Cerebral ischemic injury, MCA occlusion mouse model (TTC staining); format: in vivo; settings: 40 mg/kg intraperitoneal 4 hours before ischemia, 24 hours after reperfusion, vs DMSO, n=1
Experimental: Two types of compounds (compounds #4 and 35) (40 mg/kg of mouse body weight) were each intraperitoneally administered to a mouse 4 hours before ischemia (n=1). A vehicle (DMSO) was administered to a control (n=1). Anesthesia was induced in each mouse with 4% halothane and oxygen and maintained by the intraperitoneal administration of ketamine (40 mg/kg) and xylazine (4 mg/kg) at 30-minute intervals. After the induction of systemic anesthesia, bifurcation of the common carotid artery was exposed under a microscope. A 6-0 nylon thread having a silicon-coated tip was inserted from the internal carotid artery toward the central side so that its tip reached the anterior communicating artery. The common carotid artery was further ligated to block blood flow into the middle cerebral artery. After the ischemic burden for 30 minutes, the nylon thread was removed so that the ligated common carotid artery was released to induce reperfusion.
24 hours after the reperfusion, each mouse was cervically dislocated and then decapitated to excise the brain. Five coronal sections of the cerebrum having a thickness of 2 mm were prepared from the boundary between the cerebrum and the cerebellum. The coronal sections of the cerebrum were stained with TCC through a reaction at 37° C. for 20 minutes with a TTC solution diluted to 1.5% with PBS. […]

[4] = tested on: human kidney-derived cell line HK-2; assay: Renal protective effect: cisplatin cytotoxicity to HK-2 cells; format: cell-based; settings: for HK-2 cell death by cisplatin: cisplatin 30 μM
Experimental: The HK-2 cells were seeded at 5×10^3 cells/well to a 96-well cell culture plate and then cultured overnight. Cisplatin and compound #4 were mixed at 30 μM and each concentration (30, 10, 3, 1, 0.3, 0.1, 0.03, 0.01, and 0.003 μM), respectively, into DMEM/F12 common medium. After further culture for 24 hours, conversion to formazan dye by mitochondrial dehydrogenase in live cells was detected by the measurement of absorbance at OD […] using a kit (Cell counting kit-8, manufactured by Dojindo Laboratories) to analyze the ratio of live cells. HK-2 cells cultured in the absence of cisplatin (“Cisplatin-” of FIG. 14) and HK-2 cells cultured in the presence of cisplatin (30 μM) and in the absence of the compound #4 (“Cisplatin+” of FIG. 14) were used as controls.
The cells were cultured in advance for 1 hour with the compound #4 of the present invention having a concentration of 3 μM and then analyzed according to the method described in Example 12.

SMILES: O=C(CC(C(=O)O)c1c[nH]c2ccccc12)c1ccc(F)cc1 (stereo not shown) [compound #4, 4-(4-Fluorophenyl)-2-(1H-indol-3-yl)-4-oxo-butanoic acid]
- Hct value [1]: 47.7±0.816 % PCV
- hemoglobin concentration in the mouse blood [1]: 16.2 ± 0.286 g/dL
- cell survival rate compared with cells cultured in the absence of the compound (DMSO) (Hep3B cells; 0.5 μM compound, 24 hours): almost the same
- cell survival rate compared with cells cultured using 0.5 μM compound (Hep3B cells; 100 μM compound, 24 hours): approximately 70%
- cell survival rate compared with cells cultured using 0.5 μM compound (Hep3B cells; 1, 5, or 10 μM compound, 24 hours): rarely different
- cytotoxicity (Hep3B cells; concentration ranging from 0 to 10 μM): hardly exhibit cytotoxicity
- erythropoietin concentration in the mouse plasma ([2]; low concentration (5 μg/ml) and high concentration (15 μg/ml)): elevate the erythropoietin concentration
- GOT concentration in the plasma ([2]; mice): lower
- GPT concentration in the plasma ([2]; mice): lower
- volume of the cerebral infarction site [3]: decreased
- HK-2 cell death by cisplatin ([4]; compound at a concentration around 30 μM): efficiently suppress cell death
- HK-2 cell death by cisplatin ([4]; compound at least at a concentration of 1 to 300 μM, 24 hours): significantly suppressed
- HK-2 cell death by cisplatin with preincubation compared with no preincubation ([4]; preincubation 1 hour with 3 μM compound): further suppressed
